Laboratory results as given in paper PMC5722318, “Absence of anti-hypocretin receptor 2 autoantibodies in post pandemrix narcolepsy cases” (PLoS ONE, 2017).
Like-named read-outs stand apart in the source and are kept apart here.

Tested on: DQ0602
Assay type: binding, human
Conditions: for % Read #1 / Read #1: replicate 1; for % Average: mean of two reads; for % Read #2 / Read #2: replicate 2; for Average: mean of the two raw reads; for Read #1 / Read #2: raw signal read
[1] = % of Bio-EBV binding, first assay (02/04/2016, 07/15/2016 or 08/11/2016, by peptide)
[2] = % of Bio-EBV binding, repeat assay (07/19/2016, 07/18/2016 or 08/12/2016, by peptide)
[3] = first assay (02/04/2016, 07/15/2016 or 08/11/2016, by peptide)
[4] = repeat assay (07/19/2016, 07/18/2016 or 08/12/2016, by peptide)

## HDSDKGVTAACPH [HA143-155 146D, synthetic 13-mer hemagglutinin peptide containing mutated 146D]
  Average (two assays): 86.9741%
% of Bio-EBV binding (Bio-EBV average = 100), first assay (02/04/2016, 07/15/2016 or 08/11/2016, by peptide)
  % Read #1: 75.8456%
[1]
  % Average: 83.2638%
  % Read #2: 90.682%
[2]
  % Average: 90.6844%
  % Read #1: 90.6154%
  % Read #2: 90.7533%
[3]
  Average: 15669
  Read #2: 17065
[4]
  Average: 15132.5
  Read #1: 15121
  Read #2: 15144
First assay (02/04/2016, 07/15/2016 or 08/11/2016, by peptide), competition against Bio-EBV epitope
  Read #1: 14273
